Data: ChEMBL document CHEMBL1201862, “PubChem BioAssay data set” (2004)
The source made the active and inactive calls.

Legend:
[1] = molecular target: T1, Cytochrome P450 3A4 (Homo sapiens, UniProt P08684); conditions: Potency
[2] = system: Vero; experiment: cells; type: functional; conditions: Chlorocebus sabaeus
[3] = molecular target: FAD-linked sulfhydryl oxidase ALR (Homo sapiens, UniProt P55789); experiment: ALR-catalysed DTT oxidation blockers – biochemical, H2O2 detection, luminescence, cherry-pick, dose response (AID 493248)
[4] = fluconazole-exposed Candida albicans growth modulators – fluorescence, retest, confirmation (AID 2467); type: functional, cell-based
[5] = Luminescence Cell-Based Dose Confirmation HTS to Identify Activators of 5'UTR Stem-Loop Driven Alpha-Synuclein mRNA Translation in H4 Neuroglioblastoma Cells. [Related pubchem assays: 1829 (Project Summary), 1814 (Primary HTS)]; type: functional
[6] = NIH-3T3 fibroblast cytotoxicity, dose response, cytotoxicity control, cell-based, fluorescence, Alamar Blue, secondary assay (AID 2327); type: functional;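 also: NIH-3T3 mouse fibroblasts cultured with fluconazole at 8 µg/mL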
[7] = system: H4; experiment: Luminescence Cell-Based Dose Response HTS to Identify Activators of 5'UTR Stem-Loop Driven Prion Protein mRNA Translation in H4 Neuroglioblastoma Cells. [Related pubchem assays: 1829 (Project Summary), 1814 (Primary HTS)]; type: functional; conditions: Homo sapiens
[8] = molecular target: T2, Streptokinase A (Streptococcus pyogenes serotype M1, UniProt P10520); experiment: viability-normalized secreted streptokinase activity reduction – plasminogen activation absorbance, OD405, dose response (AID 1914); type: functional, Streptococcus pyogenes M1 GAS;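 also: secreted streptokinase activity via plasminogen activation per viability signal from cell pellet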
T2 sequence (P10520 whole entry): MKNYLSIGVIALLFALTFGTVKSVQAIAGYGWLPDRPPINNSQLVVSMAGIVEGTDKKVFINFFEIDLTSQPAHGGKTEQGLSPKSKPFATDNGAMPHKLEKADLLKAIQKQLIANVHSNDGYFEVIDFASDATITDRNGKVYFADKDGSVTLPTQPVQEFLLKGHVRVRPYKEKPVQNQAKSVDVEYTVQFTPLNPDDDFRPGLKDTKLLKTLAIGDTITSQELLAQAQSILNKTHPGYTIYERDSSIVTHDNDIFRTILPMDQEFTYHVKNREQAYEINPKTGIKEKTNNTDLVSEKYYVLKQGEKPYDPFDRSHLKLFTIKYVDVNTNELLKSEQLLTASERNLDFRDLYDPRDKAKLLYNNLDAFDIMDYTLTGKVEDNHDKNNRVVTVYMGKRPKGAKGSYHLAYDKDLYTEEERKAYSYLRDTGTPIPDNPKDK

[9] = system: Streptococcus; experiment: GAS UMAA2166 growth inhibition – luminescence, BacTiterGlo, counter-screen for streptokinase expression inhibitor project, dose response (AID 1915); type: functional, organism-based;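 also: potency for reduction of bacterial viability or growth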
[10] = system: Streptococcus sp. 'group A'; experiment: Streptococcus pyogenes SK(-)GAS viability under kanamycin – luminescence, BacTiterGlo, confirmation, counter-screen for streptokinase expression inhibitor project, dose response (AID 1900); type: functional, organism-based
[11] = molecular target: T3, Corticotropin-releasing factor receptor 2/Corticotropin-releasing factor-binding protein (Homo sapiens, UniProt P24387+Q13324); experiment: Dose Response confirmation of uHTS hits for small molecule antagonists of the CRF-binding protein and CRF-R2 receptor complex.; type: functional; conditions: read-out: IC50_Mean
T3 sequence (Q13324 whole entry): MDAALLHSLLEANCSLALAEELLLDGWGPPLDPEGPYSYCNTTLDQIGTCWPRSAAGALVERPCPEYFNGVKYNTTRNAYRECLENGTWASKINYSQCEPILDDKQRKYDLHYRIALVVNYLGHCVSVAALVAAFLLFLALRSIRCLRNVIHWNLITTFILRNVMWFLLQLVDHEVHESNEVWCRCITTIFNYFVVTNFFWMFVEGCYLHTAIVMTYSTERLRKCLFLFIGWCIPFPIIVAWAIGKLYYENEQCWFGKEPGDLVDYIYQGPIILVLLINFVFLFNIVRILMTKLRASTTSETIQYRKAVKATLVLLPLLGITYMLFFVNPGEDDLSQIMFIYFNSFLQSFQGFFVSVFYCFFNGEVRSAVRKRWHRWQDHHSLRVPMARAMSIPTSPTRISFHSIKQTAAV
T3 sequence (P24387 whole entry): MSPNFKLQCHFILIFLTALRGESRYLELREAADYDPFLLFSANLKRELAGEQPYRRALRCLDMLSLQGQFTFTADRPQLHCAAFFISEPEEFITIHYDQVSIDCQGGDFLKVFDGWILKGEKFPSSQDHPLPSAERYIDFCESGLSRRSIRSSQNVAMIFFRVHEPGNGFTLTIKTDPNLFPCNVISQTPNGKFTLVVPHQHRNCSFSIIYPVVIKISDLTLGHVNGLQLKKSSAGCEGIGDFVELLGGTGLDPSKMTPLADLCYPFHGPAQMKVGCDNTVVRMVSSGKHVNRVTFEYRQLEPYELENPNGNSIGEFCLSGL

[12] = molecular target: T3, Corticotropin-releasing factor receptor 2/Corticotropin-releasing factor-binding protein; experiment: activators of CRF receptor 2 with binding protein – uHTS hits, confirmation (AID 602473); type: functional; conditions: read-out: EC50_Mean
[13] = Luminescence Cell-Based Dose Retest to Confirm Inhibitors of Cancer Stem Cells. [Related pubchem assays (depositor defined):AID2717, AID2721]; type: functional; conditions: Homo sapiens
[14] = viability of uninfected HEp-2 cells – cell-based, HTS, cytotoxicity control for RSV inhibitor project, dose response (AID 2410); type: functional; conditions: human respiratory syncytial virus
[15] = Luminescence Cell-Based Dose Response HTS to Identify Activators of Luciferase Translation or Activity in H4 […] Cells. [Related pubchem assays: 1829 (Project Summary), 1814 (Primary HTS)]; type: functional
[16] = molecular target: T1, Cytochrome P450 3A4
[17] = molecular target: Cytochrome P450 2C9 (Homo sapiens, UniProt P11712)
[18] = molecular target: T4, Zinc finger protein mex-5 (Caenorhabditis elegans, UniProt Q9XUB2); experiment: potency of MEX-5 RNA-binding blockers – biochemical, C. elegans, fluorescence polarization, dose response (AID 1960)
T4 sequence (Q9XUB2 whole entry): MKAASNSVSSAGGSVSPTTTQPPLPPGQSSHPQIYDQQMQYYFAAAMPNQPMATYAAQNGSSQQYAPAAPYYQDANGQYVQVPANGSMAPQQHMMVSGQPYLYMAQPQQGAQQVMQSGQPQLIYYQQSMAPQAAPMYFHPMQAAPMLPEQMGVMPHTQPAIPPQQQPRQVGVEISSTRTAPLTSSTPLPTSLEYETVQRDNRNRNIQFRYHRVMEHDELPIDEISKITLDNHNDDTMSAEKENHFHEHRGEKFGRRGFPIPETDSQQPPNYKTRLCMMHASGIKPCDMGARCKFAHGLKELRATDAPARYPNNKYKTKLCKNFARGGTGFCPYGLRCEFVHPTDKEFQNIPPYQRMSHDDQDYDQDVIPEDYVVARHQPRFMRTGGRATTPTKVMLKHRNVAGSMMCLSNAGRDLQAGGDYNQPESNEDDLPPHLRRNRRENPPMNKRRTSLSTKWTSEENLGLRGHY

[19] = molecular target: T5, RNA-binding protein pos-1 (Caenorhabditis elegans, UniProt G5EF15); experiment: disruptors of C. elegans POS-1 RNA interaction – biochemical, fluorescence polarization, dose response (AID 1964);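 also: purified POS-1 fused to maltose binding protein made in E. coli; potency of compounds blocking POS-1 binding to fluorescent RNA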
T5 sequence (G5EF15 whole entry): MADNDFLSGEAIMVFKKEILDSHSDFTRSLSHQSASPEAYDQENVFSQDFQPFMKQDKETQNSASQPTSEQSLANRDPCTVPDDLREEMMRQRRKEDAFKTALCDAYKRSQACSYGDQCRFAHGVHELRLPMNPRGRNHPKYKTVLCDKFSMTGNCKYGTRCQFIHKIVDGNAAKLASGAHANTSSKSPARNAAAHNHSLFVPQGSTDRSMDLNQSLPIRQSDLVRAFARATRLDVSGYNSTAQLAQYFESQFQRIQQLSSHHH

[20] = molecular target: T6, Rac GTPase-activating protein 1 (Homo sapiens, UniProt Q9H0H5); experiment: blockers of MgcRacGAP-driven Rac1 GTP hydrolysis – biochemical, ADP Hunter fluorescence, primary and confirmatory, confirmation (AID 624330); type: functional
T6 sequence (Q9H0H5 whole entry): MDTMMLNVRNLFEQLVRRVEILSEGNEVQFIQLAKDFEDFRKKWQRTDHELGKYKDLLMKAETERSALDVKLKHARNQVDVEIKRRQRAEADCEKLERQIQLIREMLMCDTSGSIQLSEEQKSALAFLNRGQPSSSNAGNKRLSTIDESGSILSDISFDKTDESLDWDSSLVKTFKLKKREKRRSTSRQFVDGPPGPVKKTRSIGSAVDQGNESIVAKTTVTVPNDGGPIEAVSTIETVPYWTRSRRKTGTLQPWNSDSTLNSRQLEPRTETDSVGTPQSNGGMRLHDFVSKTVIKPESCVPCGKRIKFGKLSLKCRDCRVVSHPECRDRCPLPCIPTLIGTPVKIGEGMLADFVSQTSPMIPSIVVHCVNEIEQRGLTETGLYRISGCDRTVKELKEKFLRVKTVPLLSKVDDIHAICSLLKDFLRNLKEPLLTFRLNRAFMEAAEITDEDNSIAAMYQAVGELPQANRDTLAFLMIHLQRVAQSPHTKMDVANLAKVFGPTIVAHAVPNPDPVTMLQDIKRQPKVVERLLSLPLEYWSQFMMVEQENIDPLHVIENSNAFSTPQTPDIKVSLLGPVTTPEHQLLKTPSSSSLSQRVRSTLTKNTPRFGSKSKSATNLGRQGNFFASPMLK

[21] = molecular target: Large T antigen (Simian virus 40, UniProt P03070); type: functional, Betapolyomavirus macacae;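 also: Confirmatory-stage PubChem screen for compounds that inhibit SV40 T antigen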
Chain of Large T antigen (P03070 whole entry): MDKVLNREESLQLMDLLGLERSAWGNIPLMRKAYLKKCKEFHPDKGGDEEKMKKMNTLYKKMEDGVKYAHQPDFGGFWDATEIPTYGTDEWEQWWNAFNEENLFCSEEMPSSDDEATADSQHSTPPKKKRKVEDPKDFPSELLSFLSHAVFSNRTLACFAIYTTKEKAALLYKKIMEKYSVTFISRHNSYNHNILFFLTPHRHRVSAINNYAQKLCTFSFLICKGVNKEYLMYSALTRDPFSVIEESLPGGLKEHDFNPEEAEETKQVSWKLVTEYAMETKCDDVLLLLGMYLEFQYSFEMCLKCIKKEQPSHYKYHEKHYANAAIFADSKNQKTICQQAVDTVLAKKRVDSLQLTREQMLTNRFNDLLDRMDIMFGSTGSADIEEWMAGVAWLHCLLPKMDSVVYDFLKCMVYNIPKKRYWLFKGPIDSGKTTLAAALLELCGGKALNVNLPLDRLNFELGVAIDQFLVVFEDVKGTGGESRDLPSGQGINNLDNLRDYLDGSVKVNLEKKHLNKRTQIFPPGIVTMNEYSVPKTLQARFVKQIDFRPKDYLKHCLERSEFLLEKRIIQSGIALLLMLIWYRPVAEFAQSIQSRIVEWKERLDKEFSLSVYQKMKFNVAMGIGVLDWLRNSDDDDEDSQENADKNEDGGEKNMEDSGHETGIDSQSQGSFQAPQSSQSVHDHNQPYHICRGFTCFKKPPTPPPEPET

T1 sequence (P08684 whole entry): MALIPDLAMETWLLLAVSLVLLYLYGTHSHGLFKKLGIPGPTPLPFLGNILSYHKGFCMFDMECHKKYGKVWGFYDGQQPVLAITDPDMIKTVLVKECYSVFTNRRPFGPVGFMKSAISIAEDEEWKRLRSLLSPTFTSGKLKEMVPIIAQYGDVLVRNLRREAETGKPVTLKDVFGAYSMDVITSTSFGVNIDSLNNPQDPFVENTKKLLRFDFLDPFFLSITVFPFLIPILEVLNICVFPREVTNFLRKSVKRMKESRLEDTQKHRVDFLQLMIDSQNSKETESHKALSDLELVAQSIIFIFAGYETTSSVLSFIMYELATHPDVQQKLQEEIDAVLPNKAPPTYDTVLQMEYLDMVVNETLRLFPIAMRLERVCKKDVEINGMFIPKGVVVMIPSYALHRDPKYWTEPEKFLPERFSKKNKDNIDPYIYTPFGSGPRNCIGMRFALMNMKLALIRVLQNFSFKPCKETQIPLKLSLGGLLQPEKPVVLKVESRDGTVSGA
Chain of FAD-linked sulfhydryl oxidase ALR (P55789 whole entry): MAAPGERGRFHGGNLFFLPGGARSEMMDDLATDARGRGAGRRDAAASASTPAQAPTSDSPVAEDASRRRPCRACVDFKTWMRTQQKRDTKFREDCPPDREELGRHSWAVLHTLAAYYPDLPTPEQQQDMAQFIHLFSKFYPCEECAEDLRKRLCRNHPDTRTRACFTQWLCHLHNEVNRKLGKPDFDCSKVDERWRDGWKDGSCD
Chain of Cytochrome P450 2C9 (P11712 whole entry): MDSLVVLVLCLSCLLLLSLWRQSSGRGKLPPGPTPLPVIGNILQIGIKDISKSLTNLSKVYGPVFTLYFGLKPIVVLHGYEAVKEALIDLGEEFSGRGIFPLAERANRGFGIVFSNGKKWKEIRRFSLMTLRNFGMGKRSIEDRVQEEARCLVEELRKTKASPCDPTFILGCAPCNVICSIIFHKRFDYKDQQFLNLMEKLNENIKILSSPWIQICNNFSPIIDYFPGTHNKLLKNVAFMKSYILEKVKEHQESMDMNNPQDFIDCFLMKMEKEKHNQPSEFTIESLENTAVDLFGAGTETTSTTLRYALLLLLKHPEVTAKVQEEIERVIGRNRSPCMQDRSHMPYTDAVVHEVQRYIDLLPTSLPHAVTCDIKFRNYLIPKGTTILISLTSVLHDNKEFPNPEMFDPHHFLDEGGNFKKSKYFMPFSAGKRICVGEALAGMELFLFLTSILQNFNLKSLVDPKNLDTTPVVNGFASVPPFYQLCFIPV

O=C(OCC1CO1)C1CCCCC1C(=O)OCC1CO1 (stereo not drawn)
AC50 [1]: 25.1 µM (inconclusive)

CCN1C(C)=C(C(=O)OC)C(c2ccccc2)N2C(=O)[C@](O)(C(=O)OC)CC(C#N)=C12 (stereo partly drawn)
AC50 [1]: 3.98 µM (inconclusive)

N#Cc1c(NC(=O)CSc2nc3ccccc3c(=O)n2Cc2ccco2)sc2c1CCCC2
CC50 [2]: > 25 µM (active)

COC(=O)[C@@H]1C[C@H]2CC[C@H](O)C[C@H]2N1Cc1ccc(C(F)(F)F)cc1
AC50 [1]: 12.6 µM (inconclusive)

COc1ccc(N2CC(NC(=O)N3CCN(c4ccccc4)CC3)CC2=O)cc1 (stereo not drawn)
AC50 [3]: 4.41 µM (active)

Cc1ccc(C2=CSC3=NNC4(CCCCC4)NN23)cc1
EC50 [4]: 1.76 µM (active)
EC50 [5]: 9.71 µM (active)
AC50 [3]: 1.86 µM (active)
EC50 [6]: 22.3 µM (inconclusive)
EC50 [7]: 12.4 µM (active)

Cc1ccc(N=Nc2ccc(O)c(P(=O)(c3ccccc3)c3ccccc3)c2)cc1
EC50 [8]: > 150 µM (not active)
EC50 [9]: 110 µM (active)
EC50 [10]: 3.58 µM (active)
IC50 [11]: > 47.1 µM (inactive)
CC50 [2]: > 25 µM (active)
EC50 [12]: > 53 µM (inactive)

O=C(NCc1nnc(S)n1-c1ccc(Cl)c(Cl)c1)c1ccco1
AC50 [3]: 4.14 µM (active)

Oc1c(Cl)cc(Cl)cc1CNc1ccc(Br)cn1
AC50 [3]: 5.33 µM (active)
AC50 [13]: 2.56 µM (active)

Cc1ccc2cc(/C=C/C(=O)c3ccco3)c(Cl)nc2c1
CC50 [14]: 21.2 µM (active)
CC50 [2]: 14.3 µM (active)

CCOc1ccccc1C1N=C(c2ccc(OC)cc2)CC(c2ccccc2O)N1 (stereo not drawn)
EC50 [15]: 14.3 µM (active)
EC50 [5]: 14.2 µM (active)
CC50 [2]: > 25 µM (active)
EC50 [7]: 12.3 µM (active)

CCn1c(=N)c(S(=O)(=O)c2ccc(F)cc2)cc2c(=O)n3ccccc3nc21
AC50 [16]: 10 µM (inconclusive)
AC50 [17]: 22.4 µM (inconclusive)
EC50 [18]: 26.2 µM (inconclusive)
EC50 [19]: 7.64 µM (active)

Cc1ccc(-c2c[nH]c(SCCNC(=O)c3ccco3)n2)cc1
AC50 [3]: 2.88 µM (active)

CC(=O)c1ccc(S(=O)(=O)NCC(=O)NC(c2nc3ccccc3[nH]2)C(C)C)cc1 (stereo not drawn)
AC50 [3]: 0.113 µM (active)

COc1cc(/C=N/NC(=O)CCN2CCCCC2)ccc1O
AC50 [3]: 3.05 µM (active)
IC50 [20]: 32.1 µM (active)

COc1ccc2c(/C=N/Nc3ccc(C(=O)O)cc3)c[nH]c2c1
AC50 [3]: 1.9 µM (active)
IC50 [20]: 54.9 µM (active)

COc1cc(/C=N/NC2=NCCCCC2)ccc1O
IC50 [21]: 6.11 µM (active)
AC50 [3]: 0.028 µM (active)
IC50 [20]: 22.5 µM (active)

CN(C)c1ccc(N)cc1
AC50 [1]: 15.8 µM (inconclusive)

Cc1cccc(/C=C\c2ccccc2)n1
AC50 [1]: 15.8 µM (inconclusive)

CC(=O)c1cc2c(cc1O)OC(C)(C)C=C2
AC50 [1]: 31.6 µM (inconclusive)

C=C[C@@](C)(O)CC[C@@H]1[C@@]2(C)CCCC(C)(C)[C@@H]2CC[C@@]1(C)O
AC50 [1]: 10 µM (inconclusive)

CC1=CC(=C(C#N)c2nc3ccccc3s2)C=C(C)N1CC1CCCO1 (stereo not drawn)
EC50 [12]: 14.7 µM (active)
EC50 [18]: 13.5 µM (inconclusive)
EC50 [19]: 12.3 µM (inconclusive)

COc1ccc(-c2coc3cc(O)ccc3c2=O)c(OC)c1 [2'-METHOXYFORMONETIN]
AC50 [1]: 39.8 µM (inconclusive)

Nc1cc(Cl)cc(C(=O)O)c1Cl [CHLORAMBEN]
AC50 [1]: 25.1 µM (inconclusive)

Cc1cc(O)c(C=O)c(O)c1C(=O)O [HAEMATOMMIC ACID]
AC50 [1]: 25.1 µM (inconclusive)
